Reference: PMC10408569, “Recruitment of hexahydroquinoline as anticancer scaffold targeting inhibition of wild and mutants EGFR (EGFR^WT, EGFR^T790M, and EGFR^L858R)” (Journal of Enzyme Inhibition and Medicinal Chemistry, 2023)

What was measured:
[1] = test system: CCRF-CEM; assay: NCI-60 anticancer screening (SRB); type: cell-based; settings: Homo sapiens, leukemia, one dose 10 μM, read-out: Growth Inhibition Percentage (GI %)
[2] = test system: K-562; assay: NCI-60 anticancer screening (SRB); type: cell-based; settings: Homo sapiens, K562; K-562, leukemia; one dose 10 μM; read-out: Growth Inhibition Percentage (GI %)
[3] = test system: RPMI-8226; assay: NCI-60 anticancer screening (SRB); type: cell-based; settings: Homo sapiens; RPMI-8226, leukemia; one dose 10 μM; read-out: Growth Inhibition Percentage (GI %)
[4] = test system: SR; assay: NCI-60 anticancer screening (SRB); type: cell-based; settings: Homo sapiens, leukemia, one dose 10 μM, read-out: Growth Inhibition Percentage (GI %)
[5] = test system: HOP-92; assay: NCI-60 anticancer screening (SRB); type: cell-based; settings: Homo sapiens; HOP-92, NSC lung cancer; one dose 10 μM; read-out: Growth Inhibition Percentage (GI %)
[6] = test system: NCI-H460; assay: NCI-60 anticancer screening (SRB); type: cell-based; settings: Homo sapiens; NCI-H460, NSC lung cancer; one dose 10 μM; read-out: Growth Inhibition Percentage (GI %)
[7] = test system: HCT-116; assay: NCI-60 anticancer screening (SRB); type: cell-based; settings: Homo sapiens; HCT-116, colon cancer; one dose 10 μM; read-out: Growth Inhibition Percentage (GI %)
[8] = test system: HT29; assay: NCI-60 anticancer screening (SRB); type: cell-based; settings: Homo sapiens, HT-29; HT29, colon cancer; one dose 10 μM; read-out: Growth Inhibition Percentage (GI %)
[9] = test system: SW-620; assay: NCI-60 anticancer screening (SRB); type: cell-based; settings: Homo sapiens; SW-620, colon cancer; one dose 10 μM; read-out: Growth Inhibition Percentage (GI %)
[10] = test system: SF-268; assay: NCI-60 anticancer screening (SRB); type: cell-based; settings: Homo sapiens; SF-268, CNS cancer; one dose 10 μM; read-out: Growth Inhibition Percentage (GI %)
[11] = test system: SF-295; assay: NCI-60 anticancer screening (SRB); type: cell-based; settings: Homo sapiens; SF-295, CNS cancer; one dose 10 μM; read-out: Growth Inhibition Percentage (GI %)
[12] = test system: SF-539; assay: NCI-60 anticancer screening (SRB); type: cell-based; settings: Homo sapiens; SF-539, CNS cancer; one dose 10 μM; read-out: Growth Inhibition Percentage (GI %)
[13] = test system: LOX IMVI; assay: NCI-60 anticancer screening (SRB); type: cell-based; settings: Homo sapiens, melanoma, one dose 10 μM, read-out: Growth Inhibition Percentage (GI %)
[14] = test system: M14; assay: NCI-60 anticancer screening (SRB); type: cell-based; settings: Homo sapiens; M14, melanoma; one dose 10 μM; read-out: Growth Inhibition Percentage (GI %)
[15] = test system: SK-MEL-28; assay: NCI-60 anticancer screening (SRB); type: cell-based; settings: Homo sapiens; SK-MEL-28, melanoma; one dose 10 μM; read-out: Growth Inhibition Percentage (GI %)
[16] = test system: SK-MEL-5; assay: NCI-60 anticancer screening (SRB); type: cell-based; settings: Homo sapiens; SK-MEL-5, melanoma; one dose 10 μM; read-out: Growth Inhibition Percentage (GI %)
[17] = test system: UACC-62; assay: NCI-60 anticancer screening (SRB); type: cell-based; settings: Homo sapiens; UACC-62, melanoma; one dose 10 μM; read-out: Growth Inhibition Percentage (GI %)
[18] = test system: OVCAR-4; assay: NCI-60 anticancer screening (SRB); type: cell-based; settings: Homo sapiens; OVCAR-4, ovarian cancer; one dose 10 μM; read-out: Growth Inhibition Percentage (GI %)
[19] = test system: SK-OV-3; assay: NCI-60 anticancer screening (SRB); type: cell-based; settings: Homo sapiens; SK-OV-3, ovarian cancer; one dose 10 μM; read-out: Growth Inhibition Percentage (GI %)
[20] = test system: A498; assay: NCI-60 anticancer screening (SRB); type: cell-based; settings: Homo sapiens; A498, renal cancer; one dose 10 μM; read-out: Growth Inhibition Percentage (GI %)
[21] = test system: ACHN; assay: NCI-60 anticancer screening (SRB); type: cell-based; settings: Homo sapiens, renal cancer, one dose 10 μM, read-out: Growth Inhibition Percentage (GI %)
[22] = test system: RXF 393; assay: NCI-60 anticancer screening (SRB); type: cell-based; settings: Homo sapiens; RXF 393, renal cancer; one dose 10 μM; read-out: Growth Inhibition Percentage (GI %)
[23] = test system: SN 12C; assay: NCI-60 anticancer screening (SRB); type: cell-based; settings: Homo sapiens, SN12C; SN 12C, renal cancer; one dose 10 μM; read-out: Growth Inhibition Percentage (GI %)
[24] = test system: TK-10; assay: NCI-60 anticancer screening (SRB); type: cell-based; settings: Homo sapiens; TK-10, renal cancer; one dose 10 μM; read-out: Growth Inhibition Percentage (GI %)
[25] = test system: PC-3; assay: NCI-60 anticancer screening (SRB); type: cell-based; settings: Homo sapiens; PC-3, prostate cancer; one dose 10 μM; read-out: Growth Inhibition Percentage (GI %)
[26] = test system: MCF7; assay: NCI-60 anticancer screening (SRB); type: cell-based; settings: Homo sapiens; MCF7, breast cancer; one dose 10 μM; read-out: Growth Inhibition Percentage (GI %)
[27] = test system: HS 578T; assay: NCI-60 anticancer screening (SRB); type: cell-based; settings: Homo sapiens; HS 578T, breast cancer; one dose 10 μM; read-out: Growth Inhibition Percentage (GI %)
[28] = test system: T-47D; assay: NCI-60 anticancer screening (SRB); type: cell-based; settings: Homo sapiens, T47D, breast cancer, one dose 10 μM, read-out: Growth Inhibition Percentage (GI %)
[29] = molecular target: EGFR^T790M (Homo sapiens, UniProt P00533, T790M); assay: biochemical
Chain of EGFR^T790M (P00533 25-1210 T790M): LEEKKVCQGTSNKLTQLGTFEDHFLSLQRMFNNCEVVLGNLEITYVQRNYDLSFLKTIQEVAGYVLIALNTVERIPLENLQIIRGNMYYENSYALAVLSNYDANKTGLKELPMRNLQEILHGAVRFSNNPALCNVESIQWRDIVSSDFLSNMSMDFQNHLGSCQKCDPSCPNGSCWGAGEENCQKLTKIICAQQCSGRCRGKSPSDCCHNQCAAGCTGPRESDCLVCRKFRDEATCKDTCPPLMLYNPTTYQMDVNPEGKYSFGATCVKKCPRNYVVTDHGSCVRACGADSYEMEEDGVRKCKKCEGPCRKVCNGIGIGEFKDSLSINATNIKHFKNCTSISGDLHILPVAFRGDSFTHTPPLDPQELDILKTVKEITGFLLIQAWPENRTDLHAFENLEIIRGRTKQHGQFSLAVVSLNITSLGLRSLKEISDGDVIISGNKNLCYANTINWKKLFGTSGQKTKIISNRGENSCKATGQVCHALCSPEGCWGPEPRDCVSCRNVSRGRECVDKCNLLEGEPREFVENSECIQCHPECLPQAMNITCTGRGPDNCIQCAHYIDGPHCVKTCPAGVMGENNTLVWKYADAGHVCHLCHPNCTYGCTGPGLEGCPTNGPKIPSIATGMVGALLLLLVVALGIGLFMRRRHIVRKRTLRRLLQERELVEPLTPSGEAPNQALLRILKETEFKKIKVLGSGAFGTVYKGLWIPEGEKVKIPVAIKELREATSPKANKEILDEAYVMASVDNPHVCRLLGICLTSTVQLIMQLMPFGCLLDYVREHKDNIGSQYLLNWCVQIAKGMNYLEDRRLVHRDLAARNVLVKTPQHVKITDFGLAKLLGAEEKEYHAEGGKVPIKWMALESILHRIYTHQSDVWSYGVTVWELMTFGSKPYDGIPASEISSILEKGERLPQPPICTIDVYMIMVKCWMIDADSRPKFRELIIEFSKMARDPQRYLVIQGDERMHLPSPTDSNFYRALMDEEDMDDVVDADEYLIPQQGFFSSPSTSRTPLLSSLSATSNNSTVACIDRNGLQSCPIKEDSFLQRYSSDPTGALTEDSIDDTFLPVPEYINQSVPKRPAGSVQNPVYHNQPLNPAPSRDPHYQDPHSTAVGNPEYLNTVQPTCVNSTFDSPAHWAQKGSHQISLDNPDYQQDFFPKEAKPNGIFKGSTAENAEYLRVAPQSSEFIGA

[30] = molecular target: EGFR^L858R (Homo sapiens, UniProt P00533, L858R); assay: biochemical
Chain of EGFR^L858R (P00533 25-1210 L858R): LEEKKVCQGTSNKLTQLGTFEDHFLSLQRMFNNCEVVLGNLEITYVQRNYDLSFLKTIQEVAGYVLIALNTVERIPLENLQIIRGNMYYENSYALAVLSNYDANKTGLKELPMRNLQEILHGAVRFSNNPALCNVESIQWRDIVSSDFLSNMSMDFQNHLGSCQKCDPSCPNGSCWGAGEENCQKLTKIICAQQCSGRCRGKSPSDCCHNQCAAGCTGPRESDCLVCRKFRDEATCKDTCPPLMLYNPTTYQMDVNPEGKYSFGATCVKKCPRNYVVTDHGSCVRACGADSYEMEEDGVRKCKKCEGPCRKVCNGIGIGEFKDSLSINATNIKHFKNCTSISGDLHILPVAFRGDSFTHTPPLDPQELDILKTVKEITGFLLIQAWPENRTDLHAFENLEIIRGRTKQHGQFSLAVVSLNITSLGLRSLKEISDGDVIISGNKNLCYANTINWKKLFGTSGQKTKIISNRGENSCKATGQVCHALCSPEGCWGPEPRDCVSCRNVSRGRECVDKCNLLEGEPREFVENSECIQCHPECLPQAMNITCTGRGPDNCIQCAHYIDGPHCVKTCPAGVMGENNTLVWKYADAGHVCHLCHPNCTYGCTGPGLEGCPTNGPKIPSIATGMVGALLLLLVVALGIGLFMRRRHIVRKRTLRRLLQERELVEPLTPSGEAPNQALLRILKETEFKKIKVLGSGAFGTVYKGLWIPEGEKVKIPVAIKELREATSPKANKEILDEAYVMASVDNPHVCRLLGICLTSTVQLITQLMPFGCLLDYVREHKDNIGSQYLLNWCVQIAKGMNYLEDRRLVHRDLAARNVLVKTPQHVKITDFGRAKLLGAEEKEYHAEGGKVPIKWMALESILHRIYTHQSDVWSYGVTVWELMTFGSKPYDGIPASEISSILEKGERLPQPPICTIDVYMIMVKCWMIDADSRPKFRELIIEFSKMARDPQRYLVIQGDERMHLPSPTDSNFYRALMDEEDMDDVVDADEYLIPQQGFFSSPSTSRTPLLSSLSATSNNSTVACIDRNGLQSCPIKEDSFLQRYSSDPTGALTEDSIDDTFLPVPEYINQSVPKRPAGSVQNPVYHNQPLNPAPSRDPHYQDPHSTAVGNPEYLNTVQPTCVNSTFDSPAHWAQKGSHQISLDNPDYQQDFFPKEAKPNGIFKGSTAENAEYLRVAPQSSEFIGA

[31] = molecular target: EGFR^WT (Homo sapiens, UniProt P00533); assay: EGFR kinase inhibitory assay (HTRF)
Chain of EGFR^WT (P00533 25-1210): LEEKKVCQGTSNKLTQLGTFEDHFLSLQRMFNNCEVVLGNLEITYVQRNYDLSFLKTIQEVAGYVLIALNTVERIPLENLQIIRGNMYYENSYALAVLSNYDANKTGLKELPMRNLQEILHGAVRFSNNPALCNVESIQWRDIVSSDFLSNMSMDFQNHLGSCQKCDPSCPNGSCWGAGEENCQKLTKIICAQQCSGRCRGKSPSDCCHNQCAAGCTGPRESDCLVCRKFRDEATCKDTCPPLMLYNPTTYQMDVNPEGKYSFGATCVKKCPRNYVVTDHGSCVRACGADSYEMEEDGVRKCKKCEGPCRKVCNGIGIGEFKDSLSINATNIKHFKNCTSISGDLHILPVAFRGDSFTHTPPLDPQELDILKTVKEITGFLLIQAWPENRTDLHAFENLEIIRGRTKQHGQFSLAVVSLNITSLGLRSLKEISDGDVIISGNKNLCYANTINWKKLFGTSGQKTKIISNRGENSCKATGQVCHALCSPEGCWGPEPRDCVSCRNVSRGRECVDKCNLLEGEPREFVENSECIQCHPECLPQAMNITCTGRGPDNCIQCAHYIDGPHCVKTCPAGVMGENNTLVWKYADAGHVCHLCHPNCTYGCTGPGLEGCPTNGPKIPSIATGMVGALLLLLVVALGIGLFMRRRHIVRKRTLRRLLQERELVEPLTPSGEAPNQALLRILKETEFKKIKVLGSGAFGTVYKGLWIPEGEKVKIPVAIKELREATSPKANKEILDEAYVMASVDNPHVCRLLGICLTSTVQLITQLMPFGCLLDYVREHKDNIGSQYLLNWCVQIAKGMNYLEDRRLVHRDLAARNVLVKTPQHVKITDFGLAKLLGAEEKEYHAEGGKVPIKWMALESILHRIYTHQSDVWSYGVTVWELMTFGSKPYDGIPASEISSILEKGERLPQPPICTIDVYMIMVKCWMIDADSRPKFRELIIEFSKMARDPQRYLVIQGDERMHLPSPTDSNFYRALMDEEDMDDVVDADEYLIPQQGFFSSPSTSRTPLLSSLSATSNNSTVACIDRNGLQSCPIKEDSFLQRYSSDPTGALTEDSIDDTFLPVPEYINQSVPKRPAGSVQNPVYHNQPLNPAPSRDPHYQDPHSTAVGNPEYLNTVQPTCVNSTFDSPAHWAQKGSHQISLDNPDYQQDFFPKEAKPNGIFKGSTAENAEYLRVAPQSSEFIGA

SMILES	inhibition at 10 µM [1] [%]	inhibition at 10 µM [2] [%]	inhibition at 10 µM [3] [%]	inhibition at 10 µM [4] [%]	inhibition at 10 µM [5] [%]	inhibition at 10 µM [6] [%]	inhibition at 10 µM [7] [%]	inhibition at 10 µM [8] [%]	inhibition at 10 µM [9] [%]	inhibition at 10 µM [10] [%]	inhibition at 10 µM [11] [%]	inhibition at 10 µM [12] [%]	inhibition at 10 µM [13] [%]	inhibition at 10 µM [14] [%]	inhibition at 10 µM [15] [%]	inhibition at 10 µM [16] [%]	inhibition at 10 µM [17] [%]	inhibition at 10 µM [18] [%]	inhibition at 10 µM [19] [%]	inhibition at 10 µM [20] [%]	further results
CCOC(=O)C1=C(N)N(c2ccc(Cl)cc2)C2=C(C(=O)CC(C)(C)C2)C1c1ccccc1OC (racemic) [6i, (±)-Ethyl 2-amino-1–(4-chlorophenyl)-4–(2-methoxyphenyl)-7,7-dimethyl-5-oxo-1,4,5,6,7,8-hexahydroquinoline-3-carboxylate]	56	66	73	64	12	51	65	44	23	27	41	31	37	49	36	29	44	58	< 10	< 10	inhibition at 10 µM [21]: 38%; inhibition at 10 µM [22]: < 10%; inhibition at 10 µM [23]: 12%; inhibition at 10 µM [24]: < 10%; inhibition at 10 µM [25]: 68%; inhibition at 10 µM [26]: 65%; inhibition at 10 µM [27]: 32%; inhibition at 10 µM [28]: 40%; IC50 [29]: 450 ± 3 nM; IC50 [30]: 230 ± 1 nM; IC50 [31]: 157 ± 30 nM
CCOC(=O)C1=C(N)N(c2ccc(Cl)cc2)C2=C(C(=O)CC(C)(C)C2)C1c1ccc(F)cc1 (racemic) [8b, (±)-Ethyl 2-amino-1–(4-chlorophenyl)-4–(4-fluoroyphenyl)-7,7-dimethyl-5-oxo-1,4,5,6,7,8-hexahydroquinoline-3-carboxylate]	26	< 10	< 10	< 10	21	< 10	34	39	< 10	< 10	12	< 10	14	14	< 10	29	40	16	< 10	< 10	inhibition at 10 µM [21]: < 10%; inhibition at 10 µM [22]: 17%; inhibition at 10 µM [23]: < 10%; inhibition at 10 µM [24]: < 10%; inhibition at 10 µM [25]: 35%; inhibition at 10 µM [26]: 25%; inhibition at 10 µM [27]: < 10%; inhibition at 10 µM [28]: 27%; IC50 [29]: 650 ± 4 nM; IC50 [30]: 770 ± 6 nM; IC50 [31]: 186 ± 100 nM
CCOC(=O)C1=C(N)N(c2ccccc2)C2=C(C(=O)CC(C)(C)C2)C1c1ccc(Cl)cc1 (racemic) [8c, (±)-Ethyl 2-amino-4–(4-chlorophenyl)-7,7-dimethyl-5-oxo-1-phenyl-1,4,5,6,7,8-hexahydroquinoline-3-carboxylate]	85	82	92	87	30	87	81	65	72	42	79	64	59	72	56	72	78	71	56	33	inhibition at 10 µM [21]: 78%; inhibition at 10 µM [22]: < 10%; inhibition at 10 µM [23]: 46%; inhibition at 10 µM [24]: 20%; inhibition at 10 µM [25]: 78%; inhibition at 10 µM [26]: 83%; inhibition at 10 µM [27]: 28%; inhibition at 10 µM [28]: 70%; IC50 [29]: 820 ± 6 nM; IC50 [30]: 812 ± 5 nM; IC50 [31]: 194 ± 90 nM
CCOC(=O)C1=C(N)N(c2ccc(Cl)cc2)C2=C(C(=O)CC(C)(C)C2)C1c1ccc(Cl)cc1 (racemic) [8e, (±)-Ethyl 2-amino-1,4-bis (4-chlorophenyl)-7,7-dimethyl-5-oxo-1,4,5,6,7,8-hexahydroquinoline-3-carboxylate]	61	63	90	52	< 10	59	45	46	33	22	33	26	11	49	26	46	28	54	< 10	< 10	inhibition at 10 µM [21]: 32%; inhibition at 10 µM [22]: 35%; inhibition at 10 µM [23]: < 10%; inhibition at 10 µM [24]: 11%; inhibition at 10 µM [25]: 58%; inhibition at 10 µM [26]: 56%; inhibition at 10 µM [27]: 44%; inhibition at 10 µM [28]: 42%; IC50 [29]: 693 ± 5 nM; IC50 [30]: 351 ± 2 nM; IC50 [31]: 300 ± 120 nM
CCOC(=O)C1=C(N)N(c2ccccc2)C2=C(C(=O)CC(C)(C)C2)C1c1cccc(Cl)c1Cl (racemic) [10a, (±)-Ethyl 2-amino-4–(2,3-dichlorophenyl)-7,7-dimethyl-5-oxo-1-phenyl-1,4,5,6,7,8-hexahydroquinoline-3-carboxylate]	45	40	49	44	101	39	60	27	< 10	34	46	67	22	12	< 10	22	44	34	18	< 10	inhibition at 10 µM [21]: 42%; inhibition at 10 µM [22]: 47%; inhibition at 10 µM [23]: 37%; inhibition at 10 µM [24]: < 10%; inhibition at 10 µM [25]: 65%; inhibition at 10 µM [26]: 40%; inhibition at 10 µM [27]: < 10%; inhibition at 10 µM [28]: 28%; IC50 [29]: 532 ± 4 nM; IC50 [30]: 490 ± 3 nM; IC50 [31]: 145 ± 30 nM
